Data as given in article PMC10288505, “Photoswitchable Calixarene Activators for Controlled Peptide Transport across Lipid Membranes” (Journal of the American Chemical Society, 2023).

Columns and labels:
[1] = Carboxyfluorescein (CF) dye efflux assay, counterion-activated peptide transport; format: biochemical; conditions: for CF transport out of the liposomes on addition of peptide alone: peptide 4 µM, no activator, LUV 15 µM lipid with 50 mM CF encapsulated
Description: Dynamic light scattering (DLS) control experiments also confirmed liposome integrity under the experimental conditions employed in the different membrane transport assays, which ruled out potential membrane disruption interferences (Figure S34). Established dye efflux assays were performed using the carboxyfluorescein (CF) dye encapsulated at self-quenching concentrations in egg phosphatidylcholine large unilamellar vesicles (EYPC-LUV⊃CF).[26],[27],[29],[45] In these experiments, the fractional release of trapped CF (or fractional transport activity, Y), triggered by the addition of counterion activators and peptides, is monitored by time-resolved fluorescence spectroscopy and calibrated by the addition of Triton X-100 (Figure S35).
The studies were performed with both 1 and 2 in the E and Z configurations in the presence of fixed concentrations of liposomes and cationic peptides. […] Likewise, the addition of peptides alone or nonbinding anionic peptides in the presence of calixarene activators also results in unmodified fluorescence signal, confirming that the formation of the calixarene–peptide complex is critical to activate the transport process. […] This approach retrieves the Ymax (i.e., maximal CF release relative to liposome lysis after the addition of Triton X-100) and EC50 (i.e., the effective counterion activator concentration required to reach Ymax/2) as the relevant parameters to measure the efficiency of the counterion activators.
10 mg of L-α-phosphatidylcholine (95%) (Egg, Chicken) were dissolved in 1 ml of chloroform. The solution was evaporated under a nitrogen stream, under rotation, to form a thin lipid film in the bottom of the flask. This film was left to dry under vacuum for a minimum of 1h. After drying the maximum of the solvent from the solution, 1 ml of the solution to incorporate (CF 50 mM in 5 mM phosphate buffer for EYPC-LUV⊃CF and only phosphate buffer 5 mM pH 7.4, for the LUVs with no encapsulation) was added to the thin film and the lipids were left to resuspend under agitation, in a 40 °C bath, for 30 min. The resuspended lipid mixture was then submitted to 10 freeze-thaw cycles and extruded 23 times through a 100 nm membrane, to obtain uniform, monodisperse liposomes with high encapsulation of the added solution. The liposomes were then separated from the molecules that were not encapsulated by size-exclusion chromatography, with Sephadex G25 (V = 37 ml), obtaining two fractions, one with high turbidity and a clear one, corresponding to the encapsulated and free sensor, respectively. The samples were then analyzed by Dynamic Light Scattering (DLS) to determine the average size of the liposomes in solution and their size distribution.
All assays were done up to 48h after the preparation of the vesicles to ensure their integrity and majority of CF still encapsulated.
EC50 and Ymax calculation. For the measurement of 1 and 2’s effectiveness as a counterion activators of polyarginine transport, dye efflux assays were executed at several counterion activator concentrations, while maintaining the concentration of peptide and LUV fixed as indicated in the respective figures.
For the dye efflux assays, CF emission was followed throughout the assay, with consecutive additions of the elements of the solution – the initial solution presented only the vesicles at a fixed concentration. A counterion activator aliquot is then added according to the concentration to be tested and the emission is measured to confirm that CF remains encapsulated; some counterion activators can act as detergents at sufficient concentrations. Finally, the peptide in question is added and fluorescence spectra are measured […]
until the emission stabilizes and a maximum of release is reached. If the counterion activator has the capacity to activate the transport, CF should be co-transported to the exterior of the liposome with the influx of the counterion-peptide complex. Finally, Triton X-100 is added to the solution to dissolve the […]

[2] = system: R3; assay: Indicator displacement assay with host:LCG reporter pair, guest R3; format: binding; conditions: association constant, competitive dye displacement with LCG, 5 mM phosphate buffer pH 7.3, mean ± SD of triplicate
Text: (§1) The binding affinity of the anionic calixarene activators toward cationic peptides was investigated using a small library of highly hydrophilic oligoarginines, from 3 to 8 residues. These peptides are not able to spontaneously transverse zwitterionic artificial membranes in vesicle assays, which allows the accurate evaluation of the calixarenes 1 and 2 as counterion activators without interferences from the transport of the peptide alone.[43]−[45] First, the formation of host–guest complexes between 1/2 and the selected peptides was verified by indicator displacement assays using lucigenin (LCG) as the fluorescent indicator.[46] As previously reported for other sulfonatocalixarene derivatives,[46] the formation of host–guest binding pairs between calixarenes 1/2 in the E- and Z-forms and LCG results in significant static fluorescence quenching (see Figure 2A and Figures S26 and S27). Quantitative analysis of the fluorescence titration data using a 1:1 host:guest binding model allows the determination of the respective binding constants (K) reported in Table 1. As can be observed, both 1/2 display high affinity for the LCG dye, on the 10^7 M^–1 range, which seems to be independent of the nature and conformation of the azobenzene arm. […] The host:LCG binding pairs were then employed in the above-mentioned indicator displacement assays to investigate the binding affinity of oligoarginines toward 1 and 2 (see Figure 2B and Figures S29–S33).
(§2) The binding affinities of the counterion activators and peptide complexes were analyzed by indicator displacement assays. The fluorescent dye chosen for these experiments was lucigenin (LCG) due to its complex with the receptor SC4 being well characterized and due to the high variation of emission between its bound and free form. Firstly, the affinity for LCG was calculated for each of the activators, by titrations followed by fluorescence spectroscopy leading to almost full quenching of the emission. For the competitive assays, a concentration of LCG and activator was chosen in order to have approximately 90% of complexed dye and that mixture was then titrated with each of the peptides, leading to the regaining of emission when LCG was release from the complex.
(§3) Figure S26 - Fluorescence titration of the lucigenin dye with increasing concentrations of A) E-1 and B) Z–1 in water (5 mM phosphate buffer pH 7.3). LCG concentration was fixed 0.2 µM in all experiments, except for the first E-1 titrations were [LCG]
(§4) (1 picture or pasted object on this page, not shown here)
(§5) Figure S29 - Indicator displacement titration of the several oligoarginines A) R3 B) R4 C) R6 and D) R8, using SC4:LCG as the reporter pair (5 mM phosphate buffer pH 7.3). LCG and SC4 concentrations were fixed at A) 0.22 and 0.50 µM, for all three replicates, B) 0.22 and 4.7 µM for the first titration and 0.22 and 4.3 µM for the remaining two replicates, C) 0.22 and 0.45 µM and 1.1 and 0.85 µM and D) 0.28 and 0.43 µM and 1.1 and 0.85 µM, respectively, from left to right.
(§6) Figure S30 - Indicator displacement titration of the several oligoarginines A) R3 B) R4 C) R6 and D) R8, using E-1:LCG as the reporter pair (5 mM phosphate buffer pH 7.3) LCG and E-1 concentrations were fixed at A) 0.11 and 0.25 µM, for all three replicates, B) 0.22 and 0.5 µM, for the first two titrations and 0.22 and 0.23 µM for the remaining replicate, C) 4.0 and 3.8 µM and 0.22 and 0.5 µM, D) 4 and 3 µM and 0.22 and 0.5 µM, respectively, from left to right. […]

[3] = system: R4; assay: Indicator displacement assay with host:LCG reporter pair, guest R4; format: binding; conditions: association constant, competitive dye displacement with LCG, 5 mM phosphate buffer pH 7.3, mean ± SD of triplicate
Text: as §1, §2, §3, §4, §5, §6

[4] = system: hexaarginine (R6); assay: Indicator displacement assay with host:LCG reporter pair, guest R6; format: binding; conditions: association constant, competitive dye displacement with LCG, 5 mM phosphate buffer pH 7.3; only the lower limit can be estimated
Text: as §1
Figure 2 (A) Fluorescence titration of the lucigenin dye (LCG, 1.5 μM) with increasing concentrations of E-2 in water (5 mM phosphate buffer, pH 7.3). […]
(§7) The binding affinities of the counterion activators and peptide complexes were analyzed by indicator displacement assays. […] Firstly, the affinity for LCG was calculated for each of the activators, by titrations followed by fluorescence spectroscopy leading to almost full quenching of the emission. […]
(§8) Figure S26 - Fluorescence titration of the lucigenin dye with increasing concentrations of A) E-1 and B) Z–1 in water (5 mM phosphate buffer pH 7.3). […]

[5] = system: R8; assay: Indicator displacement assay with host:LCG reporter pair, guest R8; format: binding; conditions: association constant, competitive dye displacement with LCG, 5 mM phosphate buffer pH 7.3; only the lower limit can be estimated
Text: as §1, §7, §8

[6] = Photochemical characterisation (UV–vis absorption, 1H NMR) and thermal Z→E isomerization; format: physicochemical
Text: The photochromic properties of 1 and 2 were investigated in diluted aqueous solution by UV–vis absorption spectroscopy and in CD3OD by ^1H NMR.
On the other hand, irradiation of the Z-forms at λirr = 500 nm originates a photostationary state (PSS) composed of 70 and 80% of E-1 (Φ1Z → E = 0.6) and E-2 (Φ2Z → E = 0.5), respectively (Figure 1 and Figure S23). As generally observed for other azobenzene photoswitches,[42] the E isomers can be quantitatively recovered in the dark through the thermal Z → E isomerization, with 1 and 2 presenting activation energies of 215 and 93 kJ/mol, respectively (Figures S24 and S25).

N=C(N)NCCC[C@H](NC(=O)[C@H](CCCNC(=N)N)NC(=O)[C@H](CCCNC(=N)N)NC(=O)[C@H](CCCNC(=N)N)NC(=O)[C@H](CCCNC(=N)N)NC(=O)[C@@H](N)CCCNC(=N)N)C(N)=O [R6, hexaarginine, reference compound]
CF transport out of the liposomes on addition of peptide alone [1]: did not activate the transport of CF

N=C(N)NCCC[C@H](NC(=O)[C@H](CCCNC(=N)N)NC(=O)[C@H](CCCNC(=N)N)NC(=O)[C@H](CCCNC(=N)N)NC(=O)[C@H](CCCNC(=N)N)NC(=O)[C@H](CCCNC(=N)N)NC(=O)[C@H](CCCNC(=N)N)NC(=O)[C@@H](N)CCCNC(=N)N)C(N)=O [R8, reference compound]
CF transport out of the liposomes on addition of peptide alone [1]: did not activate the transport of CF

O=S(=O)(O)c1cc2c(O)c(c1)Cc1cc(S(=O)(=O)O)cc(c1O)Cc1cc(S(=O)(=O)O)cc(c1O)Cc1cc(S(=O)(=O)O)cc(c1O)C2 [SC4, sulfonatocalix[4]arene, reference compound]
Apparent affinity constant K for R3 [2]: (5.5 ± 0.3) × 10^6 M^–1
Apparent affinity constant K for R4 [3]: (2.7 ± 0.4) × 10^8 M^–1
Apparent affinity constant K for R6 [4]: >1 × 10^9 ^a M^–1
Apparent affinity constant K for R8 [5]: >1 × 10^9 ^a M^–1

CCCCc1ccc(N=Nc2ccc(OCCCOc3c4cc(S(=O)(=O)[O-])cc3Cc3cc(S(=O)(=O)[O-])cc(c3O)Cc3cc(S(=O)(=O)[O-])cc(c3O)Cc3cc(S(=O)(=O)[O-])cc(c3O)C4)cc2)cc1.[Li+].[Li+].[Li+].[Li+] [compound 2]
CF fluorescence signal (vesicle leakage) on addition of counterion activator alone ([1]; in the absence of peptides, EYPC-LUV⊃CF): does not affect the intensity of the fluorescence signal
Activation energy of thermal Z → E isomerization ([6]; in the dark): 22.2 kcal/mol
Conversion of the E isomer into the Z-form ([6]; irradiation at 366 nm): quantitative conversion
Photoisomerization quantum yield Φ E → Z ([6]; irradiation at 366 nm, diluted aqueous solution): 0.4
Photoisomerization quantum yield Φ Z → E ([6]; irradiation at 500 nm): 0.5
